Tests used:
[1] = tested on: S. pyogenes; assay: TTC assay (broth microdilution) for MIC and MBC determination; assay type: cell-based, Streptococcus pyogenes; settings: for inhibition at 250 µg/mL (stock) / OD 480 nm (24 h) / OD 600 nm (24 h) / log10 (CFU/ml): duplicate wells
Experimental: Louis, MO) as colorimetric indicator. In the presence of living bacteria, the colourless TTC is reduced to red formazan. […] Two different stock solutions of M. koenigii leaves were prepared in DMSO at concentrations of 100 mg/ml (1:10) and 20 mg/ml (1:50). Two-fold dilution method was performed in order to obtain a concentration range of 0.04 mg/ml to 10 mg/ml for the 20 mg/ml stock solution and of 0.2 mg/ml to 50 mg/ml for the 100 mg/ml stock solution. An overnight anaerobic culture of S. pyogenes grown at 37°C was adjusted to a final concentration of 1x10^7 CFU/ml in M17 broth ([…] Abruzzi, Italy) and added to the microplate wells containing different concentrations of the extract, in order to obtain a final inoculum of approximately 1x10^6 CFU/well. The microplate was incubated at 37°C under anaerobic conditions for 24 h. […] To discriminate between bactericidal/bacteriostatic activity of the extract, 100 μl aliquots from each tested dilution were used to calculate the number of viable cells (CFU/ml) by plate count method and 10 μl aliquots from the same wells were streaked on M17 agar plates (Figure 3). […] TTC assay is depicted in Figure 4, where a picture of the microplate used for the TTC assay is reported. […] Table 2: Antibacterial activity of DMSO extract of M. koenigii leaves against S. pyogenes. All results are the mean of triplicates wells. […] Medium M17 (blank), positive control (S. pyogenes without M. koenigii), Ext. (Extract). A stock solution of amoxicillin (Sigma-Aldrich, St. Louis, USA) was prepared at a concentration of 0.25 mg/ml in DMSO. The antibacterial properties against S. pyogenes of the plant extract alone, amoxicillin alone and their combination were evaluated by TTC assay as mentioned above. For the experiment, the 20 mg/ml stock solution of M. koenigii leaves was used and a solution containing 0.25 mg/ml amoxicillin and 20 mg/ml extract was prepared.

[2] = tested on: S. pyogenes (ATCC 19615); assay: Agar well diffusion method, antibacterial activity; assay type: cell-based; settings: Streptococcus pyogenes
Experimental: The agar well diffusion method was used for the assessment of the antibacterial activity of M. koenigii leaves against S. pyogenes (ATCC 19615). Six DMSO extracts of M. koenigii leaves from different geographical origins were tested. Antibacterial assay was performed on M17 agar ([…] Abruzzi, Italy). An overnight anaerobic culture of S. pyogenes grown at 37°C, was diluted in order to obtain a suspension containing approximately 1×10^8 CFU/ml. Each agar plate was spread with the microbial suspension. Using a sterile agar gel puncher, equidistant wells were created and filled with 0.1 ml of each sample. The plates were allowed to stand for 30 minutes to allow pre-diffusion of the tested samples, and thereafter incubated at 37°C for 24 h under anaerobic conditions. After incubation, the diameter of any zone of inhibition surrounding each well was measured. Each experiment was performed in triplicates and the means were calculated. […] Louis, USA). Each standard was weighed separately, solubilized in methanol and diluted in DMSO. […] Antibacterial assay was performed on M17 agar ([…] Abruzzi, 25 Italy). An overnight anaerobic culture of S. pyogenes, grown at 37°C, was diluted approximately to obtain 1×10^8 CFU/ml and spread on M17 agar. Using a sterile agar gel puncher, equidistant wells were created and filled with 0.1 ml of each extraction solvent. The plate was allowed to stand for 30 minutes to allow pre-diffusion of the tested samples, and thereafter incubated at 37°C. The zone of inhibition around each well was measured in mm.

[3] = Release of carbazole alkaloids from the chewing gum of Example 5 during chewing (HPLC/DAD of chewed bolus); assay type: in vivo, healthy adult volunteers; settings: average of three chewers
Experimental: The chromatographic separation was performed by an HPLC/DAD system series 1200 from Agilent (Agilent Technologies, Santa […], California, USA); the analytical column was a Kinetex C18 5um, 100A (150 mm x 3.00 mm i.d.) from Phenomenex (Phenomenex SRL, Bologna; Italy) equipped with a security guard column. […] The elution of the analytes was carried out with a gradient method: initial condition was 40% of ACN, then brought to 90% in 10 minutes and kept for 8 minutes. […] An aliquot of each solution was withdrawn in order to prepare a mix standard solution and a calibration curve from 0.5 ppm to 4.0 ppm in MeOH was created for the quantification of samples. […] Each chewed bolus of the resulting 4 chewing tests, was frozen overnight and then weighed, ground and added with MeOH. The supernatant was filtered and analysed by HPLC/DAD. In Table 4 below, the release results are reported, being focused on the main actives of M. koenigii. Table 4: […]

[4] = Table 3, dilution 1:2 of stock (amoxicillin 0.25 mg/ml; mix 0.25 mg/ml amoxicillin and 20 mg/ml extract)
[5] = Table 3, dilution 1:4 of stock (amoxicillin 0.25 mg/ml; mix 0.25 mg/ml amoxicillin and 20 mg/ml extract)
[6] = Table 3, dilution 1:8 of stock (amoxicillin 0.25 mg/ml; mix 0.25 mg/ml amoxicillin and 20 mg/ml extract)
[7] = Table 3, dilution 1:16 of stock (amoxicillin 0.25 mg/ml; mix 0.25 mg/ml amoxicillin and 20 mg/ml extract)
[8] = Table 3, dilution 1:32 of stock (amoxicillin 0.25 mg/ml; mix 0.25 mg/ml amoxicillin and 20 mg/ml extract)
[9] = Table 3, dilution 1:64 of stock (amoxicillin 0.25 mg/ml; mix 0.25 mg/ml amoxicillin and 20 mg/ml extract)
[10] = Table 3, dilution 1:128 of stock (amoxicillin 0.25 mg/ml; mix 0.25 mg/ml amoxicillin and 20 mg/ml extract)

CC1(C)S[C@@H]2[C@H](NC(=O)[C@H](N)c3ccc(O)cc3)C(=O)N2[C@H]1C(=O)O [Amoxicillin, amoxicillin]
inhibition at 250 µg/mL (stock) ([1]; Streptococcus pyogenes, Table 3, dilution 1:2 of stock (amoxicillin 0.25 mg/ml; mix 0.25 mg/ml amoxicillin and 20 mg/ml extract)): 100% | inhibition at 250 µg/mL (stock) ([1]; Streptococcus pyogenes, Table 3, dilution 1:4 of stock (amoxicillin 0.25 mg/ml; mix 0.25 mg/ml amoxicillin and 20 mg/ml extract)): 100% | inhibition at 250 µg/mL (stock) ([1]; Streptococcus pyogenes, Table 3, dilution 1:8 of stock (amoxicillin 0.25 mg/ml; mix 0.25 mg/ml amoxicillin and 20 mg/ml extract)): 100% | inhibition at 250 µg/mL (stock) ([1]; Streptococcus pyogenes, Table 3, dilution 1:16 of stock (amoxicillin 0.25 mg/ml; mix 0.25 mg/ml amoxicillin and 20 mg/ml extract)): 48.6% | inhibition at 250 µg/mL (stock) ([1]; Streptococcus pyogenes, Table 3, dilution 1:32 of stock (amoxicillin 0.25 mg/ml; mix 0.25 mg/ml amoxicillin and 20 mg/ml extract)): 40.6% | inhibition at 250 µg/mL (stock) ([1]; Streptococcus pyogenes, Table 3, dilution 1:64 of stock (amoxicillin 0.25 mg/ml; mix 0.25 mg/ml amoxicillin and 20 mg/ml extract)): 41.5% | inhibition at 250 µg/mL (stock) ([1]; Streptococcus pyogenes, Table 3, dilution 1:128 of stock (amoxicillin 0.25 mg/ml; mix 0.25 mg/ml amoxicillin and 20 mg/ml extract)): 42% | MIC ([1]; Streptococcus pyogenes, M17 broth, 37°C, anaerobic, 24 h): 16 µg/mL | MBC ([1]; Streptococcus pyogenes, M17 broth, 37°C, anaerobic, 24 h, complete inhibition of growth): 31 µg/mL | OD 480 nm (24 h) [1, 4]: 0.003 | OD 600 nm (24 h) [1, 4]: 0.002 | log10 (CFU/ml) [1, 4]: 0.00 log10 (CFU/ml) | OD 480 nm (24 h) [1, 5]: 0.001 | OD 600 nm (24 h) [1, 5]: 0.011 | log10 (CFU/ml) [1, 5]: 0.00 log10 (CFU/ml) | OD 480 nm (24 h) [1, 6]: 0.005 | OD 600 nm (24 h) [1, 6]: 0.026 | log10 (CFU/ml) [1, 6]: 0.00 log10 (CFU/ml) | OD 480 nm (24 h) [1, 7]: 0.057 | OD 600 nm (24 h) [1, 7]: 0.088 | log10 (CFU/ml) [1, 7]: 4.51 log10 (CFU/ml) | OD 480 nm (24 h) [1, 8]: 0.098 | OD 600 nm (24 h) [1, 8]: 0.137 | log10 (CFU/ml) [1, 8]: 5.20 log10 (CFU/ml) | OD 480 nm (24 h) [1, 9]: 0.120 | OD 600 nm (24 h) [1, 9]: 0.158 | log10 (CFU/ml) [1, 9]: 5.12 log10 (CFU/ml) | OD 480 nm (24 h) [1, 10]: 0.140 | OD 600 nm (24 h) [1, 10]: 0.161 | log10 (CFU/ml) [1, 10]: 5.08 log10 (CFU/ml)

COc1cc2[nH]c3c4c(c(C)cc3c2cc1OC)OC(C)(C)C=C4 [Koenigicine]
zone of inhibition at 3 µg/mL ([2]; ATCC19615, standard at 3 µg/ml, 0.1 ml per well, M17 agar, 37°C): ~20 mm

COc1ccc2[nH]c3c4c(c(C)cc3c2c1)OC(C)(C)C=C4 [Koenimbine]
zone of inhibition at 4 µg/mL ([2]; ATCC19615, standard at 4 µg/ml, 0.1 ml per well, M17 agar, 37°C): ~18 mm

CC(C)=CCCC1(C)C=Cc2c(c(C)cc3c2[nH]c2ccccc23)O1 (centres unmarked) [Mahanimbine]
% release ([3]; chewing gum of Example 5, chewing time 0.0 min): 0.0% | % release ([3]; chewing gum of Example 5, chewing time 5.0 min): 54.7% | % release ([3]; chewing gum of Example 5, chewing time 10.0 min): 51.5% | % release ([3]; chewing gum of Example 5, chewing time 15.0 min): 59.7% | % release ([3]; chewing gum of Example 5, chewing time 20.0 min): 54.7% | zone of inhibition at 6 µg/mL ([2]; ATCC19615, read-out: inhibition zone): ~20 mm
